According to ChEMBL document CHEMBL3526131, “Involvement of organic anion-transporting polypeptides in the hepatic uptake of dioscin in rats and humans” (Drug Metab Dispos, 2013):

Key:
[1] = Drug uptake in MDCK2 cells expressing OATP1B1/MRP2 (unknown origin) at 2.5 uM after 30 to 180 mins by LC-MS/MS analysis; type: ADME, cell-based, Canis lupus familiaris; conditions: dog, mdck-ii
Hepatocyte [2] = assay: Cellular uptake in Wistar rat hepatocytes at 2.5 uM in presence of K+; type: ADME, cell-based
[3] = molecular target: T1, Solute carrier organic anion transporter family member 1B3 (Homo sapiens, UniProt Q9NPD5); assay: Cellular uptake in HEK293 cells expressing OATP1B3 (unknown origin) assessed as inhibition of cyclosporin A-mediated drug transport; type: ADME, cell-based
T1 sequence (Q9NPD5 whole entry): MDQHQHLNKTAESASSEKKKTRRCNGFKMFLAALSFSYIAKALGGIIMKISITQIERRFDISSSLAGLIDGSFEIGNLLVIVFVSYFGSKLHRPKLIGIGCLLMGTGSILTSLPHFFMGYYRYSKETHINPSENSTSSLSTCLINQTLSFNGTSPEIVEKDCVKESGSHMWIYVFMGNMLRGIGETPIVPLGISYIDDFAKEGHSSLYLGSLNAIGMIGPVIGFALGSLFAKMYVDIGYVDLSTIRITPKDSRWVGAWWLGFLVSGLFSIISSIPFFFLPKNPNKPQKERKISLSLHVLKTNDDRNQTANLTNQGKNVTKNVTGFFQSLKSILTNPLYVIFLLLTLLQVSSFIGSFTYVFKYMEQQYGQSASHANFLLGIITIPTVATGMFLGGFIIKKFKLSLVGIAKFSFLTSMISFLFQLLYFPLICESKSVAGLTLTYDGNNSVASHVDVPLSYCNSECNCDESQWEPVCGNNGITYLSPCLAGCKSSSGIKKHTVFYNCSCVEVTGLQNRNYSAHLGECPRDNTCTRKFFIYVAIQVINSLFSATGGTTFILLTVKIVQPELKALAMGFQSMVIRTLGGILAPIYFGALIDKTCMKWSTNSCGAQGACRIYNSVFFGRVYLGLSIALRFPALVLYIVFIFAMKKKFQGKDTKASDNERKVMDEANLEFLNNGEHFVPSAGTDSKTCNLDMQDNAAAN

Hepatocyte [4] = assay: Cellular uptake in Wistar rat hepatocytes assessed as rate of drug transport per 10^6 cells at 0.2 to 2.5 uM; type: ADME, cell-based
[5] = Drug uptake in Wistar rat liver assessed as hepatic extraction ratio at 2.5 uM after 1 to 60 mins in presence of cyclosporin A; type: ADME, tissue-based; conditions: with cyclosporin A, read-out: ERH
Hepatocyte [6] = assay: Cellular uptake in Wistar rat hepatocytes at 2.5 uM in presence of rifampicin; type: ADME, cell-based
Liver [7] = assay: Drug uptake in Wistar rat liver at 5 uM after 1 to 30 mins by LC-MS/MS analysis in presence of TEA; type: ADME, tissue-based; conditions: in vivo
Liver [8] = assay: Drug uptake in Wistar rat liver at 2.5 uM after 30 mins; type: ADME, tissue-based; conditions: in vivo, 0.5 h
Hepatocyte [9] = assay: Cellular uptake in Wistar rat hepatocytes at 2.5 uM in presence of ibuprofen; type: ADME, cell-based
Hepatocyte [10] = assay: Cellular uptake in Wistar rat hepatocytes at 2.5 uM in presence of PAH; type: ADME, cell-based
Liver [11] = assay: Drug uptake in Wistar rat liver at 5 uM after 1 to 30 mins by LC-MS/MS analysis in presence of rifampicin; type: ADME, tissue-based; conditions: in vivo
Liver [12] = assay: Drug uptake in Wistar rat liver at 5 uM after 1 to 30 mins by LC-MS/MS analysis in presence of ibuprofen; type: ADME, tissue-based; conditions: in vivo
[13] = Plasma clearance in Wistar rat; type: ADME, organism-based
[14] = molecular target: T1, Solute carrier organic anion transporter family member 1B3; assay: (§1) Activity at OATP1B3 (unknown origin) expressed in HEK293 cells assessed as compound transport; type: ADME, cell-based; conditions: hek293
OATP1B3 = molecular target: T2, OATP1B3 (Homo sapiens, UniProt Q9NPD5); assay: as §1; type: ADME, cell-based; conditions: HEK293 cells expressing OATP1B3
T2 sequence (Q9NPD5 whole entry): T1 sequence (Q9NPD5 whole entry)

[15] = Clearance in human hepatocytes assessed per 10^6 cells; type: ADME, cell-based, Hepatocyte; conditions: read-out: CLH
[16] = Fraction unbound in Wistar rat plasma at 2.5 uM by LC-MS/MS analysis; type: ADME, cell-free
Liver [17] = assay: Drug uptake in Wistar rat liver at 5 uM after 1 to 30 mins by LC-MS/MS analysis in presence of cyclosporin A; type: ADME, tissue-based; conditions: in vivo
[18] = Drug uptake in Wistar rat liver assessed as hepatic extraction ratio at 2.5 uM after 1 to 60 mins in presence of rifampicin; type: ADME, tissue-based; conditions: with rifampicin, read-out: ERH
[19] = Cellular uptake in Wistar rat hepatocytes at 0.2 to 2.5 uM; type: ADME, cell-based, Hepatocyte
[20] = molecular target: T1, Solute carrier organic anion transporter family member 1B3; assay: Cellular uptake in HEK293 cells expressing OATP1B3 (unknown origin) assessed as inhibition of rifampicin-mediated drug transport; type: ADME, cell-based
[21] = Drug uptake in MDCK2 cells at 2.5 uM after 30 to 180 mins by LC-MS/MS analysis; type: ADME, cell-based, Canis lupus familiaris; conditions: dog, mdck-ii
Liver [22] = assay: Drug uptake in Wistar rat liver at 5 uM after 1 to 30 mins by LC-MS/MS analysis in presence of glycyrrhizic acid; type: ADME, tissue-based; conditions: in vivo
Liver [23] = assay: Drug uptake in Wistar rat liver assessed as liver uptake index at 0.2 mg/kg, iv in presence of rifampicin; type: ADME, organism-based; parameters: dose 0.2 mg/kg, route intravenous; conditions: in vivo
[24] = molecular target: T1, Solute carrier organic anion transporter family member 1B3; assay: Cellular uptake in HEK293 cells expressing OATP1B3 (unknown origin) assessed as inhibition of (-)-epigallocatechin gallate-mediated drug transport; type: ADME, cell-based
[25] = Intrinsic clearance in human; type: ADME, organism-based; conditions: in vivo
Liver [26] = assay: Drug uptake in Wistar rat liver at 5 uM after 1 to 30 mins by LC-MS/MS analysis in presence of PAH; type: ADME, tissue-based; conditions: in vivo
Hepatocyte [27] = assay: Cellular uptake in Wistar rat hepatocytes at 2.5 uM in presence of Na+; type: ADME, cell-based
Hepatocyte [28] = assay: Cellular uptake in Wistar rat hepatocytes at 2.5 uM in presence of digoxin; type: ADME, cell-based
[29] = molecular target: T1, Solute carrier organic anion transporter family member 1B3; assay: Cellular uptake in HEK293 cells expressing OATP1B3 (unknown origin) assessed as inhibition of telmisartan-mediated drug transport; type: ADME, cell-based
[30] = Fraction unbound in Wistar rat blood; type: ADME, tissue-based
Hepatocyte [31] = assay: Cellular uptake in Wistar rat hepatocytes at 2.5 uM in presence of cyclosporin A; type: ADME, cell-based
Liver [32] = assay: Drug uptake in Wistar rat liver assessed as liver uptake index at 0.2 mg/kg, iv; type: ADME, organism-based; parameters: dose 0.2 mg/kg, route intravenous; conditions: in vivo
[33] = Drug uptake in Wistar rat liver assessed as hepatic extraction ratio at 2.5 uM after 1 to 60 mins; type: ADME, tissue-based; conditions: read-out: ERH
[34] = Ratio of drug level in blood to plasma in Wistar rat at 2.5 uM after 5 mins by LC-MS/MS analysis; type: ADME
Liver [35] = assay: Drug uptake in Wistar rat liver at 5 uM after 1 to 30 mins by LC-MS/MS analysis in presence of digoxin; type: ADME, tissue-based; conditions: in vivo
[36] = Drug uptake in MDCK2 cells expressing OATP1B1 (unknown origin) at 2.5 uM after 30 to 180 mins by LC-MS/MS analysis; type: ADME, cell-based, Canis lupus familiaris; conditions: dog, mdck-ii
HEK293 = assay: Cellular uptake in HEK293 cells at 2.5 uM after 1 min; type: ADME, cell-based; conditions: human, hek293, 1 min
Hepatocyte [37] = assay: Cellular uptake in Wistar rat hepatocytes at 2.5 uM in presence of glycyrrhizic acid; type: ADME, cell-based
Hepatocyte [38] = assay: Cellular uptake in Wistar rat hepatocytes at 2.5 uM after 2 mins; type: ADME, cell-based
Liver [39] = assay: Drug uptake in Wistar rat liver assessed as liver uptake index at 0.2 mg/kg, iv in presence of cyclosporin A; type: ADME, organism-based; parameters: dose 0.2 mg/kg, route intravenous; conditions: in vivo
Liver [40] = assay: Drug uptake in Wistar rat liver at 5 uM after 15 mins by LC-MS/MS analysis; type: ADME, tissue-based; conditions: in vivo, 0.25 h
Hepatocyte [41] = assay: Cellular uptake in Wistar rat hepatocytes at 2.5 uM in presence of TEA; type: ADME, cell-based
OATP1B1 = assay: Efflux ratio of permeability from basolateral to apical side to apical to basolateral side in MDCK2 cells expressing OATP1B1 (unknown origin) at 1 uM after 30 to 180 mins by LC-MS/MS analysis; type: ADME, cell-based, Canis lupus familiaris, MDCK-II; conditions: dog, MDCK
OATP1B1/MRP2 = assay: Efflux ratio of permeability from basolateral to apical side to apical to basolateral side in MDCK2 cells expressing OATP1B1/MRP2 (unknown origin) at 1 uM after 30 to 180 mins by LC-MS/MS analysis; type: ADME, cell-based, Canis lupus familiaris, MDCK-II; conditions: dog
Hepatocyte [42] = assay: Cellular uptake in Wistar rat hepatocytes at 5 uM after 2 mins; type: ADME, cell-based

C[C@@H]1CC[C@@]2(OC1)O[C@H]1C[C@H]3[C@@H]4CC=C5C[C@@H](O[C@@H]6O[C@H](CO)[C@@H](O[C@@H]7O[C@@H](C)[C@H](O)[C@@H](O)[C@H]7O)[C@H](O)[C@H]6O[C@@H]6O[C@@H](C)[C@H](O)[C@@H](O)[C@H]6O)CC[C@]5(C)[C@H]4CC[C@]3(C)[C@H]1[C@@H]2C [DIOSCIN]
Drug uptake [1]: Active
Drug uptake (Hepatocyte [2]): Active
Ki [3]: 1430 nM
Vmax (Hepatocyte [4]): 588 pmol/min
hepatic extraction ratio at 2.5 µM [5]: 0.074
Drug uptake (Hepatocyte [6]): Not Active
Drug uptake (Liver [7]): Active
Drug uptake (Liver [8]): Active
Drug uptake (Hepatocyte [9]): Not Active
Drug uptake (Hepatocyte [10]): Active
Drug uptake (Liver [11]): Not Active
Drug uptake (Liver [12]): Not Active
clearance [13]: 3.86 mL/min/kg
Vmax [14]: 730 pmol/min/mg
Km (OATP1B3): 2080 nM
hepatocyte CLint [15]: 35 µL/min/1e6 cells
fraction unbound at 2.5 µM [16]: 0.061
Drug uptake (Liver [17]): Not Active
hepatic extraction ratio at 2.5 µM [18]: 0.082
Km at up to 2.5 µM [19]: 3.75 µM
Ki [20]: 4.55 µM
Drug uptake [21]: Active
Drug uptake (Liver [22]): Not Active
LUI (Liver [23]): 5.5%
Ki [24]: 8.29 µM
CLint scaled [25]: 168 mL/min/kg
Drug uptake (Liver [26]): Active
Drug uptake (Hepatocyte [27]): Active
Drug uptake (Hepatocyte [28]): Not Active
Ki [29]: 1030 nM
fraction unbound [30]: 0.079
Drug uptake (Hepatocyte [31]): Not Active
LUI (Liver [32]): 11.9%
hepatic extraction ratio at 2.5 µM [33]: 0.15
blood plasma ratio at 5 min, 2.5 µM [34]: 0.771
Drug uptake (Liver [35]): Not Active
Drug uptake [36]: Active
Drug uptake (HEK293): Active
Drug uptake (Hepatocyte [37]): Not Active
Drug uptake (Hepatocyte [38]): Active
LUI (Liver [39]): 6.9%
Drug uptake (Liver [40]): Active
Drug uptake (Hepatocyte [41]): Active

C[C@]12CC[C@@H]3c4ccc(OS(=O)(=O)O)cc4CC[C@H]3[C@@H]1CCC2=O [ESTRONE SULFURIC ACID]
efflux ratio at 1 µM (OATP1B1): 2.8
efflux ratio at 1 µM (OATP1B1/MRP2): 4.2

C[C@H]1O[C@@H](O[C@H]2[C@@H](O)C[C@H](O[C@H]3[C@@H](O)C[C@H](O[C@H]4CC[C@@]5(C)[C@H](CC[C@@H]6[C@@H]5C[C@@H](O)[C@]5(C)[C@@H](C7=CC(=O)OC7)CC[C@]65O)C4)O[C@@H]3C)O[C@@H]2C)C[C@H](O)[C@@H]1O [DIGOXIN]
Drug uptake (Hepatocyte [42]): Active
